Results reported in patent US10329270B2, “Heteroaryl compounds as BTK inhibitors and uses thereof” (Merck Patent GmbH, priority 2013, dated 2019).
pIC50: −log10 of the molar value.

biological target: T1, full-length human BTK (Homo sapiens, UniProt Q06187); test: Assay A: BTK IC50 Enzyme Assay (microfluidic off-chip mobility shift kinase assay); assay type: biochemical; conditions: full-length human BTK, kinKDR peptide substrate, incubated 90 min at 27 C; read-out: Assay A (Time Dependent BTK Enzyme Assay IC50)
T1 construct: 2.5× stocks of full-length human BTK (08-080); purchased CarnaBio USA, Inc., Natick, Mass; 08-080
Description: Assay A: BTK IC50 Enzyme Assay
The following describes a microfluidic, off-chip mobility shift kinase assay used to measure inherent potency of compounds against BTK enzyme. Compounds described by embodiments of the present invention were assayed using this protocol and the data from the same is recorded in Table 2 within the column labeled: “Time Dependent BTK Enzyme Assay IC50”.
Stopped reactions were monitored at −2 PSI, −3000 V/−700 V in a LabChip 3000 plate reader from Caliper Life Sciences, a PerkinElmer Company (Hopkinton, Mass.), and the activity was measured by off-chip mobility shift assay measuring the charge/mass difference between substrate and product resulting from peptide phosphorilation. IC50 and efficacy were determined by plotting log [Inhibitor] vs. % Activity in GeneData Screener (Basel, Switzerland). […] I<1 uM and II>1 uM.

T1 sequence (Q06187 whole entry): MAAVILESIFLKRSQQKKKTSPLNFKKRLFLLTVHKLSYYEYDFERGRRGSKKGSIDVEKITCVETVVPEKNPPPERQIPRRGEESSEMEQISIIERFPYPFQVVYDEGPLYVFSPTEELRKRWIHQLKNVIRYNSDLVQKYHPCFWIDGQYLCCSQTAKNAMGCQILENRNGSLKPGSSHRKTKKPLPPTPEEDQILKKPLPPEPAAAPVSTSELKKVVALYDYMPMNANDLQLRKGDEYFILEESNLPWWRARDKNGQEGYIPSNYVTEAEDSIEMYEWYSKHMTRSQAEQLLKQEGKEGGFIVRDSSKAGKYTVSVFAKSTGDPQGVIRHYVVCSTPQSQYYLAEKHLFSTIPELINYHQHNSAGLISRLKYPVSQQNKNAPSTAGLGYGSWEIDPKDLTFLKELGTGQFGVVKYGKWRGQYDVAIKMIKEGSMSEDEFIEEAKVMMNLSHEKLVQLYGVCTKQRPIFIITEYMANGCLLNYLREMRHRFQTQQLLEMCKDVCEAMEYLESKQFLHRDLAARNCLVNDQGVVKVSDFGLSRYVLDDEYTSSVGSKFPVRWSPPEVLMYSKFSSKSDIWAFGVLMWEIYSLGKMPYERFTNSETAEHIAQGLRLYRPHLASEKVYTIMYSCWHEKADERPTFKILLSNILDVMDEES

Compound	pIC50
C=CC(=O)N[C@H]1CCN(c2ccc(C(N)=O)c(Nc3ccc(C(=O)N(C)C)cc3)n2)C1 [Compound 26, 6-((S)-3-Acryloylamino-pyrrolidin-1-yl)-2-(4-dimethylcarbamoyl-phenylamino)-nicotinamide]	> 7.00
C=CC(=O)N1CCCC(c2ccc(C(N)=O)c(Oc3ccc(Oc4ccccc4)cc3)n2)C1 (centres unmarked) [Compound 87, 1′-Acryloyl-6-(4-phenoxy-phenoxy)-1′,2′,3′,4′,5′,6′-hexahydro-[2,3′]bipyridinyl-5-carboxylic acid amide]	6.00 to 7.00
C/C=C/C(=O)N1CCCC(Nc2cnc(Oc3ccc(Oc4ccccc4)cc3)c(C(N)=O)c2)C1 (centres unmarked) [Compound 215, 5-[1-((E)-But-2-enoyl)-piperidin-3-ylamino]-2-(4-phenoxy-phenoxy)-nicotinamide]	< 5.30
CN(C)C/C=C/C(=O)N1CCC(c2ccc(C(N)=O)c(Oc3ccc(Oc4ccccc4)cc3)n2)CC1 [Compound 76, 1′-((E)-4-Dimethylamino-but-2-enoyl)-6-(4-phenoxy-phenoxy)-1′,2′,3′,4′,5′,6′-hexahydro-[2,4′]bipyridinyl-5-carboxylic acid amid]	> 7.00
C=CC(=O)N[C@H]1CCN(c2ccc(C(N)=O)c(Nc3ccc(CCN4CCC(F)(F)C4)cc3)n2)C1 [Compound 24, 6-((S)-3-Acryloylamino-pyrrolidin-1-yl)-2-{4-[2-(3,3-difluoro-pyrrolidin-1-yl)-ethyl]-phenylamino}-nicotinamide]	> 7.00
C/C=C/C(=O)NC1CCN(c2cnc(Oc3ccc(Oc4ccccc4)cc3)c(C(N)=O)c2)CC1 [Compound 200, 4-((E)-But-2-enoylamino)-6′-(4-phenoxy-phenoxy)-3,4,5,6-tetrahydro-2H-[1,3′]bipyridinyl-5′-carboxylic acid amide]	< 5.30
C=CC(=O)N[C@H]1CCN(c2ccc(C(N)=O)c(Nc3ccc(N4CCCCC4)nc3)n2)C1 [Compound 39, (S)-6-(3-acrylamidopyrrolidin-1-yl)-2-((6-(piperidin-1-yl)pyridin-3-yl)amino)nicotinamide]	> 7.00
N#CN1CC2(CC(Nc3ncc(C(N)=O)c(Oc4ccc(Oc5ccccc5)cc4)n3)C2)C1 [Compound 242, 2-[(2-cyano-2-azaspiro[3.3]heptan-6-yl]amino)-4-(4-phenoxyphenoxy)pyrimidine-5-carboxamide]	< 5.30
C=CC(=O)N[C@H]1CCN(c2ccc(C(N)=O)c(Oc3ccc(C(=O)Nc4ccccc4)cc3)n2)C1 [Compound 96, (S)-6-(3-acrylamidopyrrolidin-1-yl)-2-(4-(phenylcarbamoyl)phenoxy)nicotinamide]	5.30 to 6.00
C=CC(=O)N1CCC[C@H](c2cnc(Oc3ccc(Oc4ccccc4)cc3)c(C(N)=O)c2)C1 [Compound 124, (R)-5-(1-acryloylpiperidin-3-yl)-2-(4-phenoxyphenoxy)nicotinamide]	> 7.00
C=CC(=O)N1CCC=C(c2ccc(C(N)=O)c(Oc3ccc(Oc4ccccc4)cc3)n2)C1 [Compound 83, 1′-Acryloyl-6-(4-phenoxy-phenoxy)-1′,2′,5′,6′-tetrahydro-[2,3′]bipyridinyl-5-carboxylic acid amide]	> 7.00
C=CC(=O)N1CCC(c2ccc(C(N)=O)c(Oc3ccc(NC(=O)c4ccccc4)cc3)n2)C1 (centres unmarked) [Compound 99, 6-(1-acryloylpyrrolidin-3-yl)-2-(4-benzamidophenoxy)nicotinamide]	5.30 to 6.00
C=CC(=O)N1CCC2(CC(Nc3ncc(C(N)=O)c(Oc4ccc(Oc5ccccc5)cc4)n3)C2)C1 (centres unmarked) [Compound 182, 2-((6-acryloyl-6-azaspiro[3.4]octan-2-yl)amino)-4-(4-phenoxyphenoxy)pyrimidine-5-carboxamide]	5.30 to 6.00
C/C=C/C(=O)NC1CCN(c2cnc(Oc3ccc(Oc4cccc(F)c4)cc3)c(C(N)=O)c2)CC1 [Compound 214, 4-((E)-But-2-enoylamino)-6′-[4-(3-fluoro-phenoxy)-phenoxy]-3,4,5,6-tetrahydro-2H-[1,3′]bipyridinyl-5′-carboxylic acid amide]	< 5.30
